Data: ChEMBL document CHEMBL1147604, “Dipeptidyl aspartyl fluoromethylketones as potent caspase-3 inhibitors: SAR of the P2 amino acid” (Bioorg Med Chem Lett, 2004)

How the values were obtained:
[1] = target: T1, Calpain-1 catalytic subunit (Homo sapiens, UniProt P07384); assay: Compound was evaluated for its inhibitory activity against the Calpain-1 enzyme
T1 sequence (P07384 whole entry): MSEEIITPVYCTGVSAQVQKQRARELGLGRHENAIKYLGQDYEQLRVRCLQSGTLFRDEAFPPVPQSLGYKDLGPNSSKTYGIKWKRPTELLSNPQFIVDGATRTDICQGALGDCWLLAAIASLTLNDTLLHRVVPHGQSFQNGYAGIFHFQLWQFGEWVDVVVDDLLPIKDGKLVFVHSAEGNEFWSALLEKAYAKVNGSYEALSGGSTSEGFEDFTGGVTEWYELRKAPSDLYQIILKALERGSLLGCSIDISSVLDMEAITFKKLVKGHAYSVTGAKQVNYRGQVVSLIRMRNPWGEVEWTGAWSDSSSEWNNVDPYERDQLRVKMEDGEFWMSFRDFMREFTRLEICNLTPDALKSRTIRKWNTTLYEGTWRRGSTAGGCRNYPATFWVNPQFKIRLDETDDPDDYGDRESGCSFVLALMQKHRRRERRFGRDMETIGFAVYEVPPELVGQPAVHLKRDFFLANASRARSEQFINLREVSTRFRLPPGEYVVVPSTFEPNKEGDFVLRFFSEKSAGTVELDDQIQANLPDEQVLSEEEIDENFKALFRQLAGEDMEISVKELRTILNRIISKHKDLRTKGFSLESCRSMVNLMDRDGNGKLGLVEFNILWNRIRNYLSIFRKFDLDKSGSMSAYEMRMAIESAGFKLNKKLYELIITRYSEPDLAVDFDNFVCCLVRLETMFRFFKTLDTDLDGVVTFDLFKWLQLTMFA

Prothrombin = Prothrombin (Homo sapiens, UniProt P00734); assay: Compound was evaluated for its inhibitory activity against the Thrombin
Coagulation factor X = Coagulation factor X (Homo sapiens, UniProt P00742); assay: Compound was evaluated for its inhibitory activity against the Coagulation factor X
Sequence of Coagulation factor X (P00742 41-179 limits assumed): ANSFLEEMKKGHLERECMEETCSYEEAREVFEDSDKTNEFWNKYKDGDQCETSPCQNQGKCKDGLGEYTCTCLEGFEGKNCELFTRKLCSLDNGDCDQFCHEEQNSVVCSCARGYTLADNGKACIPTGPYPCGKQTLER
Sequence of Coagulation factor X (P00742 235-488 limits assumed): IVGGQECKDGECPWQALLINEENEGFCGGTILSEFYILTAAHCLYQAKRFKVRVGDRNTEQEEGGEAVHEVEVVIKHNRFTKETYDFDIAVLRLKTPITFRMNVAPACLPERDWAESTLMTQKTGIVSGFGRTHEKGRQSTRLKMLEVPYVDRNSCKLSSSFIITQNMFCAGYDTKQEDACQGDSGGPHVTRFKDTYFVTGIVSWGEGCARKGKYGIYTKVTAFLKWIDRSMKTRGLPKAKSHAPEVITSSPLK

Caspase-1 = target: T2, Caspase-1 (Homo sapiens, UniProt P29466); assay: Compound was evaluated for its inhibitory activity against the Caspase-1 enzyme
T2 sequence (P29466 whole entry): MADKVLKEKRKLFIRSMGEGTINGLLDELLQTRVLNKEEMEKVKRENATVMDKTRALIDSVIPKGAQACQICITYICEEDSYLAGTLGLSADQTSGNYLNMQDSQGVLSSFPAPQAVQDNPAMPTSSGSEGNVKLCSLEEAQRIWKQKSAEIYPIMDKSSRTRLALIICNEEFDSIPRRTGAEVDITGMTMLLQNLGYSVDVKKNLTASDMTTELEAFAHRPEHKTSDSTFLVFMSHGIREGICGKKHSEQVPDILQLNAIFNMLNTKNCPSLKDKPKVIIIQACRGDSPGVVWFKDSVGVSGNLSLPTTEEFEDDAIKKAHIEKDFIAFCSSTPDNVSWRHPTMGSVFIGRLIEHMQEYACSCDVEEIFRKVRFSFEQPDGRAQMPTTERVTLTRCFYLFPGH

Caspase-3 = target: T3, Caspase-3 (Homo sapiens, UniProt P42574); assay: Inhibitory activity against human recombinant Caspase-3 enzyme
T3 sequence (P42574 whole entry): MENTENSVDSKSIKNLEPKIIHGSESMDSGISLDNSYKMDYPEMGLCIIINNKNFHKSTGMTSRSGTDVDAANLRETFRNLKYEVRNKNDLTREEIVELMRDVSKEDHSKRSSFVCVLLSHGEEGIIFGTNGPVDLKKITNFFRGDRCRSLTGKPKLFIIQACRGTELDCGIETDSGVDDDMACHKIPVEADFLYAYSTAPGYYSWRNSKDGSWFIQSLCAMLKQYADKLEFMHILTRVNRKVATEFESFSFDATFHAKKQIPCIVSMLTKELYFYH

Cathepsin B = Cathepsin B (Homo sapiens, UniProt P07858); assay: Compound was evaluated for its inhibitory activity against Cathepsin B
Caspase-9 = target: T4, Caspase-9 (Homo sapiens, UniProt P55211); assay: Compound was evaluated for its inhibitory activity against the Caspase-9 enzyme
T4 sequence (P55211 whole entry): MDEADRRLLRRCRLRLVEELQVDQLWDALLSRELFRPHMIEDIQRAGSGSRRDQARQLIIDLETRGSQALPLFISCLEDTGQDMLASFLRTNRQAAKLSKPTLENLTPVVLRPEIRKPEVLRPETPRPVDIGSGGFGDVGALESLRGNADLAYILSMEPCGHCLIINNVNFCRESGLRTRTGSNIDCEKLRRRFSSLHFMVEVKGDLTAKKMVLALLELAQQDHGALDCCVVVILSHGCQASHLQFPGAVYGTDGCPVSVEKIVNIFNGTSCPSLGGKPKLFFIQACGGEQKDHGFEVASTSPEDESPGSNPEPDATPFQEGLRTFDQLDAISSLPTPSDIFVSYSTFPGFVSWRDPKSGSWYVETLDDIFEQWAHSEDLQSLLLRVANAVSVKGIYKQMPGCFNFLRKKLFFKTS

Caspase-6 = target: T5, Caspase-6 (Homo sapiens, UniProt P55212); assay: Compound was evaluated for its inhibitory activity against the Caspase-6 enzyme
T5 sequence (P55212 whole entry): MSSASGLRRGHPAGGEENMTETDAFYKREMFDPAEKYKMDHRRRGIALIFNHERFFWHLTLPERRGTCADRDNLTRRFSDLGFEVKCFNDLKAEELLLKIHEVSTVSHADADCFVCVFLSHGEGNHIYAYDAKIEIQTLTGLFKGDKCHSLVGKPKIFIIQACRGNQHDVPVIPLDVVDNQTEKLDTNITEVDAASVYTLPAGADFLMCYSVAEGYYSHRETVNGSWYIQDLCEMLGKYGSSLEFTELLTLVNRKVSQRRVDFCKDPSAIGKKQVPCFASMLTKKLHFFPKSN

[2] = target: T1, Calpain-1 catalytic subunit; assay: Compound was evaluated for its inhibitory activity against the Calpain 1 enzyme
Caspase-8 = Caspase-8 (Homo sapiens, UniProt Q14790); assay: Compound was evaluated for its inhibitory activity against the Caspase-8 enzyme
Sequence of Caspase-8 (Q14790 217-374 limits assumed): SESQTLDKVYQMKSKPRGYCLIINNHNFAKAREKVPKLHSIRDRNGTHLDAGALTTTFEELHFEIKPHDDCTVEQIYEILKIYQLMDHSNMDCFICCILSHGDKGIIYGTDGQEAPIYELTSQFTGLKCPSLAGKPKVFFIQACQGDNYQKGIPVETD
Sequence of Caspase-8 (Q14790 385-479 limits assumed): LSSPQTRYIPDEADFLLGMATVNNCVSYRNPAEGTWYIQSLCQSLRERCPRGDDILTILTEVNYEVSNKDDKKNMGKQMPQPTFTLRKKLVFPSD

Caspase-7 = target: T6, Caspase-7 (Homo sapiens, UniProt P55210); assay: Compound was evaluated for its inhibitory activity against the Caspase-7 enzyme
T6 sequence (P55210 whole entry): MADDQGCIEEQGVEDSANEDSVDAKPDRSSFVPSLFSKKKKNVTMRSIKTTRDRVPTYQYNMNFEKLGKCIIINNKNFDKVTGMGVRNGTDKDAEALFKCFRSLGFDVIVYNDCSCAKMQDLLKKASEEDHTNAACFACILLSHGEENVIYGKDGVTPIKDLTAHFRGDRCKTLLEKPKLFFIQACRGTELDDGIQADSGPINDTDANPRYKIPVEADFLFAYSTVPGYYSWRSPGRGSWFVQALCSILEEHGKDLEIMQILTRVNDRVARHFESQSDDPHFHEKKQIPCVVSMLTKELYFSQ

| IC50 [1] [µM] | IC50 (Prothrombin) [µM] | IC50 (Coagulation factor X) [µM] | IC50 (Caspase-1) [µM] | IC50 (Caspase-3) [µM] | IC50 (Cathepsin B) [µM] | IC50 (Caspase-9) [µM] | IC50 (Caspase-6) [µM] | IC50 [2] [µM] | IC50 (Caspase-8) [µM] | IC50 (Caspase-7) [µM] | SMILES |
| --- | --- | --- | --- | --- | --- | --- | --- | --- | --- | --- | --- |
| 0.12 | > 100 | > 100 | 0.9 | 1.1 | 0.3 |  |  |  |  |  | COC(=O)CC(NC(=O)[C@@H](NC(=O)OCc1ccccc1)C(C)C)C(=O)CF (stereo partly specified) |
|  | > 100 | > 100 | 0.02 | 0.03 | > 10 | 0.005 | 0.018 | > 10 | 0.007 | 0.007 | CC(C)[C@H](NC(=O)OCc1ccccc1)C(=O)NC(CC(=O)O)C(=O)CF (stereo partly specified) |
